Experimental findings from ChEMBL document CHEMBL3407438, “Discovery of potent, orally bioavailable, small-molecule inhibitors of WNT signaling from a cell-based pathway screen” (J Med Chem, 2015) are described below.

One series deals with Liver microsome. Kind of series: Intrinsic clearance in rat liver microsome at 1 uM preincubated for 5 mins by LC-MS analysis. Conditions: microsomes. The series is classed as ADME. In general terms: Liver microsomes are vesicles of endoplasmic reticulum, rich in cytochrome P450 enzymes.
A short description of series [1]: Drug metabolism in human liver microsome at 10 uM after 30 mins by LC-MS analysis. In kind it is ADME. Conditions: liver microsomes, read-out: Drug metabolism.
Series [2] is described as follows: Drug metabolism in mouse liver microsome at 10 uM after 30 mins by LC-MS analysis. Particulars: liver microsomes, read-out: Drug metabolism. The series is classed as ADME.
A short description of another series: cells. In kind it is cell-based. Conditions: Homo sapiens, 7dF3.
Series [3] is described as follows: Apparent permeability in human Caco2 cells after 2 hrs by LC-MS/MS analysis. In kind it is ADME, cell-based, Caco-2. Particulars: Caco-2. A general note: Caco-2 cells form a polarised layer with tight junctions and transporters.

In the series with Liver microsome, `Cn1cc(-c2ccc(-c3cncc(Cl)c3N3CCC4(CCNC4=O)C3)cc2)cn1` (stereo in doubt; 79) had a CLint of 298 µL/min/mg.

Consider `CNC(=O)C1CCN(c2c(Cl)cncc2Cl)CC1`, for which the figures for the metabolised at 0.5 h, 10 µM in series [1] and in series [2] were 13% and 57%, respectively. In addition, half-maximal inhibition in “cells” (IC50) required 12500 nM.

Turning to `O=C1CC2(CCN(c3c(Cl)cncc3-c3ccc(N4CCOCC4)cc3)CC2)CN1`, the half-inhibitory concentration (IC50) in the series “cells” was 746 nM.

For `Cc1cncc(-c2ccc(N3CCOCC3)cc2)c1N1CCC2(CCNC2=O)CC1`, the metabolised at 0.5 h, 10 µM in series [1] was found to be 5%; in series [2], 26%. Further, the half-inhibitory concentration (IC50) in the series “cells” came out at 113 nM.

Molecule `Cn1ncc2cc(-c3cncc(Cl)c3N3CCC4(CCNC4=O)CC3)ccc21` showed a CLint with Liver microsome of 66 µL/min/mg.

Turning to `NC(=O)C1CCN(c2c(Cl)cncc2-c2ccc(F)cc2)CC1`, in series [2], the metabolised at 0.5 h, 10 µM was found to be 52%. This molecule also yielded an IC50 in “cells” of 87 nM.

Turning to `C=C(C)c1cncc(-c2ccc(N3CCOCC3)cc2)c1N1CCC2(CCNC2=O)CC1`, the metabolised at 0.5 h, 10 µM in series [2] is 39%. The molecule also returned an IC50 in “cells” of 12 nM.

In the series “cells”, `O=C(C1CCN(c2c(Cl)cncc2Cl)CC1)N1CCOCC1` registered a half-maximal inhibitory concentration (IC50) of 44600 nM.

Regarding `O=C1NCCC12CCN(c1c(Cl)cncc1-c1ccc(N3CCOCC3)cc1)C2` (racemic), the metabolised at 0.5 h, 10 µM in series [2] turned out to be 42%. In the series “cells”, this molecule gave a half-inhibitory concentration (IC50) of 55 nM.

In the series on Liver microsome, `Cn1cc(-c2ccc(-c3cncc(Cl)c3N3CCC4(CCNC4=O)C3)cc2)cn1` (racemic) registered a CLint of 213 µL/min/mg.

Molecule `Cn1cc(-c2ccc(-c3cncc(Cl)c3N3CCC4(CCNC4=O)C3)cc2)cn1` (single isomer, unassigned; enantiomer 2) had a CLint in the series with Liver microsome of 124 µL/min/mg.

In the series “cells”, `Cn1cc(-c2cncc(-c3ccc(N4CCOCC4)cc3)c2N2CCC3(CCNC3=O)CC2)cn1` registered an IC50 of 1200 nM.

Turning to `NC(=O)C1CCN(c2c(Cl)cncc2-c2cccs2)CC1`, the metabolised at 0.5 h, 10 µM was 27% in series [1] and 97% in series [2]. For the same molecule, 40 nM corresponded to half-maximal inhibition in the series “cells” (IC50).

For `CN(C)C(=O)C1CCN(c2c(Cl)cncc2Cl)CC1`, the metabolised at 0.5 h, 10 µM in series [1] stood at 22%; in series [2], 99%. Moreover, the IC50 in the series “cells” is 26000 nM.

As for `NC(=O)C1CCN(c2c(Cl)cncc2-c2ccncc2)CC1`, the metabolised at 0.5 h, 10 µM is 5% in series [1] and 40% in series [2]. For the same molecule, the 50% inhibitory concentration (IC50) in the series “cells” was 728 nM.

`COCCNC(=O)C1CCN(c2c(Cl)cncc2Cl)CC1` displayed a 50% inhibitory concentration (IC50) in “cells” of over 30000 nM.

On to `N#CC1CCN(c2c(Cl)cncc2-c2ccc(N3CCOCC3)cc2)CC1`, for which the metabolised at 0.5 h, 10 µM in series [2] was found to be 78%. This molecule also showed an IC50 in the series “cells” of 70 nM.

`NC(=O)C1CCN(c2c(Cl)cncc2-c2ccc(N3CCOCC3)cc2)CC1`: the metabolised at 0.5 h, 10 µM worked out at 19% in series [1] and 21% in series [2]. The half-inhibitory concentration (IC50) in the series “cells” stood at 42 nM.

The molecule `CN1CCN(c2ccc(-c3cncc(Cl)c3N3CCC4(CCNC4=O)CC3)cc2)CC1` had a CLint with Liver microsome of 10 µL/min/mg.

`O=C1NCCC12CCCN(c1c(Cl)cncc1-c1ccc(N3CCOCC3)cc1)C2` (racemic) yielded an IC50 in “cells” of 5700 nM.

`O=C(Nc1ccccc1)C1CCN(c2c(Cl)cncc2Cl)CC1` came in with a half-maximal inhibitory concentration (IC50) in the series “cells” of over 30000 nM.

`NC(=O)C1CCN(c2c(Cl)cccc2Cl)CC1` displayed a half-inhibitory concentration (IC50) in “cells” of 27900 nM.

As to `CS(=O)(=O)c1ccc(-c2cncc(Cl)c2N2CCC(C(N)=O)CC2)cc1`, the metabolised at 0.5 h, 10 µM worked out at 0% in series [1] and 29% in series [2]. The same molecule displayed an IC50 in the series “cells” of 1670 nM.

As for `NC(=O)C1CCN(c2ccncc2-c2ccccc2)CC1`, the metabolised at 0.5 h, 10 µM amounted to 4% in series [1] and 23% in series [2]. Also, in “cells”, the half-inhibitory concentration (IC50) was determined as 3260 nM.

In turn, `NCC1CCN(c2c(Cl)cncc2Cl)CC1` gave a concentration for half-maximal inhibition (IC50) in the series “cells” of 10000 nM.

Take `NC(=O)C1CCN(c2ccncc2)CC1`: the half-maximal inhibitory concentration (IC50) in the series “cells” was over 30000 nM.

`O=C1NCCC12CCN(c1c(-c3ccccc3)cncc1-c1ccc(N3CCOCC3)cc1)CC2` displayed an IC50 in “cells” of over 30000 nM.

In the series on Liver microsome, `O=C1NCCC12CCN(c1c(Cl)cncc1-c1ccc(-c3ccncc3)cc1)CC2` returned a CLint of 99 µL/min/mg.

As to `O=C1NCCC12CCN(c1c(Cl)cncc1-c1ccc(N3CCCCC3)cc1)CC2`, in the series on Liver microsome, the CLint turned out to be 225 µL/min/mg.

In the case of `NC(=O)C1CCN(c2c(Cl)cncc2-c2cn[nH]c2)CC1`, the metabolised at 0.5 h, 10 µM came out at 6% in series [1] and 88% in series [2]. Half-maximal inhibition in “cells” (IC50) required 1700 nM.

Consider `CC(C)c1cncc(-c2ccc(N3CCOCC3)cc2)c1N1CCC2(CCNC2=O)CC1`, for which the metabolised at 0.5 h, 10 µM stood at 38% in series [1] and 17% in series [2]. This molecule also displayed an IC50 in “cells” of 78 nM.

The molecule `O=C1NCCC12CCN(c1c(Cl)cncc1-c1ccc(-c3cnoc3)cc1)CC2` gave a CLint in the series with Liver microsome of 136 µL/min/mg.

In turn, `Cn1ccc(-c2ccc(-c3cncc(Cl)c3N3CCC4(CCNC4=O)CC3)cc2)n1` yielded a CLint with Liver microsome of 97 µL/min/mg.

As to `CN1CCC2(CCN(c3c(Cl)cncc3-c3ccc(N4CCOCC4)cc3)CC2)C1=O`, in “cells”, the half-inhibitory concentration (IC50) was 715 nM.

Turning to `NC(=O)C1CCN(c2c(Cl)cncc2-c2cccc(N3CCOCC3)c2)CC1`, the metabolised at 0.5 h, 10 µM in series [1] is 39%; in series [2], 38%. In addition, in the series “cells”, the IC50 came out at 309 nM.

For `CC1(C(N)=O)CCN(c2c(Cl)cncc2-c2ccc(N3CCOCC3)cc2)CC1`, the metabolised at 0.5 h, 10 µM worked out at 21% in series [1] and 20% in series [2]. The same molecule yielded a half-inhibitory concentration (IC50) in the series “cells” of 87 nM.

For `NC(=O)C1CCN(c2c(Br)cncc2Br)CC1`, the metabolised at 0.5 h, 10 µM in series [1] is 13%; in series [2], 35%. In “cells”, this molecule yielded an IC50 of 360 nM.

In “cells”, `CN(C)c1ccc(-c2cncc(Cl)c2N2CCC(C(N)=O)CC2)cc1` yielded an IC50 of 123 nM.

For the molecule `NC(=O)C1CCN(c2c(Cl)cncc2-c2ccccc2)CC1`, the metabolised at 0.5 h, 10 µM in series [1] was 6%; in series [2], 56%. The IC50 in “cells” came out at 88 nM.

Take `O=C1NCCC12CCN(c1c(-c3ccc(N4CCOCC4)cc3)cncc1C1CC1)CC2`: in “cells”, the IC50 came to 1000 nM.

In turn, `Clc1cncc(Cl)c1N1CCCCC1` gave a half-inhibitory concentration (IC50) in “cells” of over 30000 nM.

`Cn1cc(-c2cncc(Cl)c2N2CCC(C(N)=O)CC2)cn1`: the metabolised at 0.5 h, 10 µM came out at 4% in series [1] and 27% in series [2]. Also, in the series “cells”, 778 nM corresponded to half-maximal inhibition (IC50).

In the case of `O=C1NCCC12CCN(c1c(Cl)cncc1-c1ccc3cnccc3c1)CC2`, the apparent permeability (Papp) at 2 h in series [3] was 24 ×10⁻⁶ cm/s.

`NC(=O)C1CCN(c2c(Cl)cncc2-c2cccnc2)CC1`: the metabolised at 0.5 h, 10 µM in series [1] amounted to 6%; in series [2], 37%. In the series “cells”, this molecule returned a half-maximal inhibitory concentration (IC50) of 1100 nM.

With `O=C1NCCC12CCN(c1c(Cl)cncc1-c1ccc(C3CCOCC3)cc1)CC2`, in the series with Liver microsome, the CLint was 111 µL/min/mg.

Consider `NC(=O)C1CCN(c2ccncc2Cl)CC1`, for which, in series [1], the metabolised at 0.5 h, 10 µM was found to be 8%. Also, in the series “cells”, inhibition was half-maximal at 23000 nM (IC50).

A word on the IC50: it is the concentration that gives 50% inhibition. Read a high IC50 as lower potency. The term Papp denotes the rate of passage across a membrane or cell layer, normalised by area and donor concentration.
